From PMC12037410, “Pharmacological targeting of BMAL1 modulates circadian and immune pathways” (Nature Chemical Biology, 2025)

Tests used:
BMAL1 [1] = biological target: T1, BMAL1 (Homo sapiens, UniProt O00327); assay: ITC; also crystal structure ([…] Å), SPR (Kd […]), PTS (ΔTm […] °C), CETSA (EC50 […]); format: binding; parameters: PASB domain (338–449 amino acids)
BMAL1 [2] = biological target: T1, BMAL1; parameters: PASB domain (residues 338–449); Protein thermal shift (PTS) fragment screen on recombinant human BMAL1(PASB), shift of melting temperature; conditions: dTmB; binder

T1 sequence (O00327 338-449): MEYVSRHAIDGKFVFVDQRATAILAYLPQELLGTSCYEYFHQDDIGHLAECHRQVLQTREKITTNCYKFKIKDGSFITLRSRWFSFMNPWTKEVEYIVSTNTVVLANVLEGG

Structure (SMILES) | Kd (BMAL1 [1]) | Bmal1(PASB) dTmB (BMAL1 [2])
CCc1ccc(OCC(F)CO)c2occc12 (racemic) [compound 4, CCM] | 1.99 ± 0.38 µM | –
O=C(COc1ccc(Cl)cc1)N1CCNCC1 [Prestw-Frag-1832, Compound 244] | – | -1.08 °C
c1ccc(-n2cccn2)cc1 [Prestw-Frag-3759, Compound 239] | – | -0.29 °C
CCNC(=O)c1cccnc1 [Prestw-Frag-2794, Compound 205] | – | 0.17 °C
COC(=O)C(O)(c1ccccc1)C1CCCCC1 (centres unmarked) [Prestw-Frag-1867, Compound 446] | – | -1.54 °C
O=C(O)Cc1ccccc1 [Prestw-Frag-2579, Compound 132] | – | -0.05 °C
NCc1c(N)ccc(Cl)c1Cl [Prestw-Frag-1039, Compound 337] | – | 0.01 °C
Nc1nncs1 [Prestw-Frag-1009, Compound 188] | – | -0.33 °C

More lines, now with the values ahead:

Kd (BMAL1 [1]) | Bmal1(PASB) dTmB (BMAL1 [2]) | Structure (SMILES)
– | -0.23 °C | O=C1OCc2ccccc21 [Prestw-Frag-2144, Compound 404]
– | -0.11 °C | NC(=O)c1ccccn1 [Prestw-Frag-2131, Compound 358]
– | -1.61 °C | OC(c1ccccc1)c1ccccc1 [Prestw-Frag-1122, Compound 454]
– | -1.05 °C | Oc1cccc2c1CCCC2 [Prestw-Frag-1156, Compound 412]
– | 0.02 °C | COC(=O)C(O)c1ccccc1 (centres unmarked) [Prestw-Frag-2423, Compound 176]
– | -0.17 °C | CC(=O)c1ccccc1O [Prestw-Frag-1884, Compound 211]
– | -1.63 °C | CCN(CC)C(=O)/C=C/c1ccccc1 [Prestw-Frag-3088, Compound 429]
– | 0.06 °C | c1ccc2c(c1)CCCN2 [Prestw-Frag-3137, Compound 43]
– | -0.34 °C | O=C(O)c1cccnc1Nc1cccc(Cl)c1 [Prestw-Frag-2807, Compound 229]
